Experimental data: ChEMBL document CHEMBL3046766, “Design, synthesis, and insecticidal evaluation of new benzoylureas containing isoxazoline and isoxazole group” (2011)

Columns and labels:
Assay type in all cases: functional
[1] = tested on: Culex pipiens pallens; assay: Insecticidal activity against Culex pipiens pallens (mosquito) fourth-instar larvae assessed as larvicidal activity at 0.1 mg/L measured 8 days post treatment; settings: 192 h
[2] = tested on: Mythimna separata; assay: Insecticidal activity against Mythimna separata (Oriental armyworm) fourth-instar larvae infested compound pre-treated corn leaves assessed as larvicidal activity at 5 mg/L measured 4 days post treatment
[3] = tested on: Mythimna separata; assay: Insecticidal activity against Mythimna separata (Oriental armyworm) fourth-instar larvae infested compound pre-treated corn leaves assessed as larvicidal activity at 50 mg/L measured 4 days post treatment
[4] = tested on: Plutella xylostella; assay: Insecticidal activity against Plutella xylostella (diamondback moth) […] larvae infested on compound pre-treated fresh cabbage leaves assessed as larvicidal activity at 5 mg/L measured 3 days post treatment
[5] = tested on: Plutella xylostella; assay: Insecticidal activity against Plutella xylostella (diamondback moth) […] larvae infested on compound pre-treated fresh cabbage leaves assessed as larvicidal activity at 2 mg/L measured 3 days post treatment
[6] = tested on: Plutella xylostella; assay: Insecticidal activity against Plutella xylostella (diamondback moth) […] larvae infested on compound pre-treated fresh cabbage leaves assessed as larvicidal activity at 0.2 mg/L measured 3 days post treatment
[7] = tested on: Culex pipiens pallens; assay: Insecticidal activity against Culex pipiens pallens (mosquito) fourth-instar larvae assessed as larvicidal activity at 0.25 mg/L measured 8 days post treatment; settings: 192 h
[8] = tested on: Plutella xylostella; assay: Insecticidal activity against Plutella xylostella (diamondback moth) […] larvae infested on compound pre-treated fresh cabbage leaves assessed as larvicidal activity at 0.02 mg/L measured 3 days post treatment
[9] = tested on: Mythimna separata; assay: Insecticidal activity against Mythimna separata (Oriental armyworm) fourth-instar larvae infested compound pre-treated corn leaves assessed as larvicidal activity at 10 mg/L measured 4 days post treatment
[10] = tested on: Mythimna separata; assay: Insecticidal activity against Mythimna separata (Oriental armyworm) fourth-instar larvae infested compound pre-treated corn leaves assessed as larvicidal activity at 25 mg/L measured 4 days post treatment
[11] = tested on: Culex pipiens pallens; assay: Insecticidal activity against Culex pipiens pallens (mosquito) fourth-instar larvae assessed as larvicidal activity at 2 mg/L measured 8 days post treatment; settings: 192 h
[12] = tested on: Plutella xylostella; assay: Insecticidal activity against Plutella xylostella (diamondback moth) […] larvae infested on compound pre-treated fresh cabbage leaves assessed as larvicidal activity at 20 mg/L measured 3 days post treatment
[13] = tested on: Mythimna separata; assay: Insecticidal activity against Mythimna separata (Oriental armyworm) fourth-instar larvae infested compound pre-treated corn leaves assessed as larvicidal activity at 200 mg/L measured 4 days post treatment
[14] = tested on: Plutella xylostella; assay: Insecticidal activity against Plutella xylostella (diamondback moth) […] larvae infested on compound pre-treated fresh cabbage leaves assessed as larvicidal activity at 200 mg/L measured 3 days post treatment
[15] = tested on: Mythimna separata; assay: Insecticidal activity against Mythimna separata (Oriental armyworm) fourth-instar larvae infested compound pre-treated corn leaves assessed as larvicidal activity at 100 mg/L measured 4 days post treatment
[16] = tested on: Plutella xylostella; assay: Insecticidal activity against Plutella xylostella (diamondback moth) […] larvae infested on compound pre-treated fresh cabbage leaves assessed as larvicidal activity at 100 mg/L measured 3 days post treatment
[17] = tested on: Culex pipiens pallens; assay: Insecticidal activity against Culex pipiens pallens (mosquito) fourth-instar larvae assessed as larvicidal activity at 1 mg/L measured 8 days post treatment; settings: 192 h
[18] = tested on: Culex pipiens pallens; assay: Insecticidal activity against Culex pipiens pallens (mosquito) fourth-instar larvae assessed as larvicidal activity at 0.5 mg/L measured 8 days post treatment; settings: 192 h
[19] = tested on: Mythimna separata; assay: Insecticidal activity against Mythimna separata (Oriental armyworm) fourth-instar larvae infested compound pre-treated corn leaves assessed as larvicidal activity at 1 mg/L measured 4 days post treatment
[20] = tested on: Mythimna separata; assay: Insecticidal activity against Mythimna separata (Oriental armyworm) fourth-instar larvae infested compound pre-treated corn leaves assessed as larvicidal activity at 2.5 mg/L measured 4 days post treatment
[21] = tested on: Culex pipiens pallens; assay: Insecticidal activity against Culex pipiens pallens (mosquito) fourth-instar larvae assessed as larvicidal activity at 0.025 mg/L measured 8 days post treatment; settings: 192 h
[22] = tested on: Culex pipiens pallens; assay: Insecticidal activity against Culex pipiens pallens (mosquito) fourth-instar larvae assessed as larvicidal activity at 0.05 mg/L measured 8 days post treatment; settings: 192 h

Structure (SMILES) | mortality at 0.1 µg/mL [1] [%] | mortality at 50 µg/mL [3] [%] | mortality at 0.25 µg/mL [7] [%] | mortality at 2 µg/mL [11] [%] | mortality at 20 µg/mL [12] [%] | mortality at 200 µg/mL [14] [%] | mortality at 100 µg/mL [15] [%] | other results
CC(C)(C)C1CC(c2ccc(NC(=O)NC(=O)c3c(F)cccc3F)cc2)=NO1 (stereo unspecified) | 50 | 100 | 100 | – | – | – | – | mortality at 5 µg/mL [2]: 40%; mortality at 5 µg/mL [4]: 100%; mortality at 2 µg/mL [5]: 80%; mortality at 0.2 µg/mL [6]: 70%; mortality at 0.02 µg/mL [8]: 10%; mortality at 10 µg/mL [9]: 100%; mortality at 25 µg/mL [10]: 100%
O=C(NC(=O)c1c(F)cccc1F)Nc1ccc(C2=NOC(c3ccc(F)cc3)C2)cc1 (stereo unspecified) | – | – | – | 40 | 100 | – | – | mortality at 5 µg/mL [4]: 80%; mortality at 200 µg/mL [13]: 10%; mortality at 2 µg/mL [5]: 30%
CCCCC1CC(c2ccc(NC(=O)NC(=O)c3c(F)cccc3F)cc2)=NO1 (stereo unspecified) | – | 0 | – | 30 | 20 | 80 | 100 | mortality at 200 µg/mL [13]: 100%; mortality at 100 µg/mL [16]: 70%
O=C(NC(=O)c1c(F)cccc1F)Nc1ccc(C2=NOC(CBr)C2)cc1 (stereo unspecified) | – | 20 | – | 60 | 0 | 40 | 100 | –
CCCCCCCC1CC(c2ccc(NC(=O)NC(=O)c3c(F)cccc3F)cc2)=NO1 (stereo unspecified) | – | 60 | – | 50 | – | 0 | 100 | –
N#CC1CC(c2ccc(NC(=O)NC(=O)c3c(F)cccc3F)cc2)=NO1 (stereo unspecified) | 70 | 0 | 100 | – | – | 0 | 100 | –
COC(=O)C1CC(c2ccc(NC(=O)NC(=O)c3c(F)cccc3F)cc2)=NO1 (stereo unspecified) | – | 0 | – | 60 | – | 10 | 100 | –
CCCCOCC1CC(c2ccc(NC(=O)NC(=O)c3c(F)cccc3F)cc2)=NO1 (stereo unspecified) | – | 40 | – | 100 | – | 10 | 100 | mortality at 1 µg/mL [17]: 80%
O=C(NC(=O)c1c(F)cccc1F)Nc1ccc(C2=NOC(COCC(F)(F)F)C2)cc1 (stereo unspecified) | – | 60 | – | 40 | – | 0 | 100 | –
O=C(NC(=O)c1c(F)cccc1F)Nc1ccc(C2=NOC(c3ccccc3)C2)cc1 (stereo unspecified) | 90 | 0 | 100 | – | 30 | 50 | 100 | –
CC1(c2ccccc2)CC(c2ccc(NC(=O)NC(=O)c3c(F)cccc3F)cc2)=NO1 (stereo unspecified) | 80 | 60 | 100 | – | 30 | 100 | 100 | mortality at 0.5 µg/mL [18]: 100%; mortality at 200 µg/mL [13]: 100%; mortality at 100 µg/mL [16]: 80%
O=C(NC(=O)c1c(F)cccc1F)Nc1ccc(CO/N=C(/c2ccc(Cl)cc2)C2CC2)cc1 [FLUCYCLOXURON] | 100 | – | – | – | – | – | – | mortality at 1 µg/mL [19]: 10%; mortality at 5 µg/mL [2]: 90%; mortality at 2.5 µg/mL [20]: 50%; mortality at 0.025 µg/mL [21]: 15%; mortality at 10 µg/mL [9]: 95%; mortality at 0.05 µg/mL [22]: 100%
